In paper PMC6770473, “Proximity ligation assay to study protein–protein interactions of proteins on two different cells” (Biotechniques, 2018):
Entries after “also recorded” stand apart in the source; their conditions may differ.

B1: CD2: T-cell surface adhesion protein, binding partner of CD58 (protein)
chain: KEITNALETWGALGQDINLDIPSFQMSDDIDDIKWEKTSDKKKIAQFRKEKETFKEKDTYKLFKNGTLKIKHLKTDDQDIYKVSIYDTKGKNVLEKIFDLKIQERVSKPKISWTCINTTLTCEVMNGTDPELNLYQDGKHLKLSQRVITHKWTTSLSAKFKCTAGNKVSKESSVEPVSCPEKGLDIYLIIGICGGGSLLMVFVALLVFYITKRKKQRSRRNDEELETRAHRVATEERGRKPHQIPASTPQNPATSQHPPPPPGHRSQAPSHRPPPPGHRVQHQPQKRPPAPSGTQVHQQKGPPLPRPRVQPKPPHGAAENSLSPSSN

Columns and labels:
[1] = tested on: CD58 on the cell surface of HFLS-RA cells; assay: Binding of SFTI-a BODIPY conjugate to HFLS-RA cells (fluorescence microscopy); type: cell-based, human; settings: green fluorescence of BODIPY, Mg+ green filter (excitation 507, emission 531), 60x, concentration not given
Method: Synthesis of cyclic peptide SFTI-a, Cyclo(CKASAPPSCYDGDD), was carried out in three major steps: 1) Linear sequence synthesis with an automatic peptide synthesizer (Protein Technologies, Inc., AZ, USA); 2) head-to-tail cyclization; and 3) disulfide bond formation. For fluorescent labeling of peptide SFTI-a, Lys in the peptide sequence was replaced with Lys containing an azide side chain. The azide side chain was used to conjugate fluorescent label 4,4-difluoro-4-bora-3a,4a-diaza-s-indacene (BODIPY), resulting in the conjugate Cyclo(CK-(BODIPY)-ASAPPSCYDGDD). The detailed procedure for synthesis of the peptide is described in our previous work. Peptides SFTI-a and SFTI-a with lysine azide (N3) and fluorescence-labeled SFTI-a were purified by preparative HPLC (Waters Corp., MA, USA) using acetonitrile and water containing 0.1% TFA. Molecular weights of the synthesized peptide and the conjugate were confirmed by mass spectrometry. BODIPY was obtained from Dr Vicente, Department of Chemistry, Louisiana State University, LA, USA.
(§1) • Both T cells and HFLS-RA cells were grown to 70% confluency. • Approximately 20,000 Jurkat cells were added to each well, and the chamber slides were incubated for 30 min at 37°C with 5% CO2. • Approximately 10,000 HFLS-RA cells were treated with different concentrations of SFTI-a peptide separately for 2 h at 4°C and added over Jurkat cells that were previously coated onto the well chamber slides. • The slides were incubated for 48 h at 37°C with 5% CO2.
The microscopic visualization was carried out on an Olympus Fluoview FV10i confocal microscope. DAPI (excitation 359, emission 461) and Texas Red (excitation 595, emission 612) filters were used for detection purposes at 60x zoom. For SFTI-a BODIPY conjugate, a Mg+ green (excitation 507, emission 531) filter was used. Different images were taken from each well containing different concentrations of SFTI-a and cells only. All images were taken in a single plane and at 60x magnification.

[2] = tested on: CD2–CD58 interaction; assay: Proximity ligation assay (PLA), Jurkat T cells / HFLS-RA cells co-culture; type: cell-based, human; settings: for PPI inhibition by BODIPY conjugate (red fluorescence): BODIPY conjugate of SFTI-a, concentration not printed, compared to control without any peptide; for reduction in number of red dots: compared with control, p < 0.001; for PPI inhibition, number of red dots (ImageJ): vs untreated wells, p < 0.0001 (SAS, GLM)
Method: as §1
• The medium was gently removed from the corners of the wells. • Enough chilled methanol to cover the surface was added to each well for fixing the cells. • After incubating the slides for 15 min at −20°C, the methanol was removed, and PBS was used to hydrate the slides. • The slides were washed once more with PBS. • Two drops of blocking solution was added to each well, and they were incubated for 90 min at room temperature in a moist chamber.
• The blocking solution was removed, and the slides were washed gently with PBS. • The CD58 and CD2 (Santa Cruz Biotechnology) primary antibodies were used at a dilution of […] by diluting with antibody diluent solution provided in kit (2 μl [CD58 Ab] + 2 μl [CD2 Ab] + 196 μl antibody diluent solution per well). • After addition of primary antibody solution, the slides were incubated overnight at 4°C in a moist chamber with gentle shaking.
• The primary antibody solution was removed, and each well was washed very gently with 100 μl of PBS. • The probe solution was prepared using 1:1:4 ratio of positive probe:negative probe:antibody diluent solution, respectively. • After removing PBS, approximately 80 μl of probe solution was added to each well, which were incubated at 37°C for 1 h in a moist chamber.
• The probe solution was discarded, and all wells were washed twice with 100 μl of wash buffer A. • Ligase solution was prepared by mixing together 16 μl of ligation solution + 2 μl of ligase + 62 μl of high purified water. • 80 μl of this freshly prepared ligase solution was added gently to each well, which were incubated at 37°C for 30 min in a moist chamber.
• All procedures from this step forward were carried out in a dark (light-protected) environment. • After removing the ligase solution, the wells were washed gently twice with wash buffer A. • Amplification/polymerase solution was prepared by mixing together 1 μl polymerase + 16 μl amplification (red) solution + 63 μl purified water. • 80 μl of the above solution was added to each well in the dark, and the plates were incubated in a 37°C moist chamber in the dark for 100 min.
• Amplification/polymerase solution was removed from each well, and they were washed gently twice with 120 μl of wash buffer B. • 0.01x wash buffer B (in phosphate-buffered saline [PBS]) was prepared, and each well was washed with this solution. • The well on slides were removed (wells are removed after all the washing step to prepare the slide for microscopic imaging). • Keeping the slide surface slightly wet with 0.01x wash buffer B, a small amount of mounting medium with DAPI solution was added to the slide. • Coverslips were placed over the slides, and images were obtained by using an Olympus Fluoview 1.0 confocal microscope with DAPI and Texas Red filters.
Wash buffers A and B were provided in the kit. The composition of the buffers is not disclosed by the vendor. A bio-protocol by Lin et al. provides the composition of Duolink in situ buffers A and B. The incubation time of 48 h was established by carrying out PLA at 24- and 48-h times.
Control experiments were conducted with HFLS-RA cells and T cells without addition of primary antibodies to CD2 and CD58 but with addition of secondary antibodies and PLA probes. Experiments were performed as described in steps 1–7 above.
Experiments with HFLS-RA cells and T cells were carried out as described above by adding primary and secondary antibodies only to CD58 and with PLA probes. […]

[3] = tested on: cell adhesion in the immune response; settings: cell-based in vitro and ex vivo assays; cited from earlier work
From the text: (§2) In almost all physiological processes, the medium for communication between two cells is facilitated by the interaction of proteins. The up- or down-regulation of proteins and the deregulated interaction of these proteins usually lead to disease conditions. Rational drug designs targeting these protein–protein interactions (PPI) have gained much popularity in the past decade. […] Many proteins interact at the cell surface to send signals inside the cell from the extracellular region, and PPI on the cell surface are targ ...

[4] = tested on: CD2–CD58 interaction; settings: cited from earlier work
From the text: as §2

[5] = tested on: CD58 protein; settings: cited from earlier work
From the text: as §2

[6] = target: CD58 adhesion domain; settings: relatively weak but highly specific interaction; background statement, reference printed only at the preceding sentence; read-out: Kd of CD2–CD58 interaction; cited from earlier work
From the text: as §2

[7] = listed as BODIPY conjugate of SFTI-a

| Molecule | binding to CD58 on HFLS-RA cell surface [1] | binding to CD58 on HFLS-RA cell surface [1, 7] | PPI inhibition by BODIPY conjugate (red fluorescence) [2] | PPI inhibition by BODIPY conjugate (red fluorescence) [2, 7] | inhibition of cell adhesion in the immune response, suppression of T-cell immune response [3] | inhibition of CD2–CD58 interaction [4] | binding to CD58 [5] | reduction in number of red dots ([2]; 50 nM SFTI-a) | reduction in number of red dots ([2]; 250 nM SFTI-a) | PPI inhibition, number of red dots (ImageJ) ([2]; 10 μM SFTI-a) | PPI inhibition, number of red dots (ImageJ) ([2]; 50 μM SFTI-a) | decrease in red dots (CD2–CD58 PPI inhibition) ([2]; 100 μM SFTI-a, HFLS-RA cells treated 2 h at 4°C, added over Jurkat cells, 48 h at 37°C, confocal microscopy 60x, vs cells without peptide) | PPI inhibition, number of red dots (ImageJ) ([2]; 100 μM SFTI-a) | PPI inhibition at different concentrations (dose dependence) ([2]; different concentrations of SFTI-a (50 nM, 250 nM, 1 μM, 10 μM, 50 μM, 100 μM), HFLS-RA cells treated 2 h at 4°C, co-culture with Jurkat cells 48 h at 37°C, red dots) | Kd [6] [µM] |
| --- | --- | --- | --- | --- | --- | --- | --- | --- | --- | --- | --- | --- | --- | --- | --- |
| Cyclo(CK-(BODIPY)-ASAPPSCYDGDD) (bicyclic or more) [SFTI-a conjugate, fluorescently labeled peptide with BODIPY attachment via azide side chain of Lys] | bound to the cell surface of HFLS-RA cells as shown by green fluorescence of BODIPY | green fluorescence on HFLS-RA cells due to binding of a conjugate of SFTI-a to CD58 on cells | inhibit the interaction between Jurkat cells and HFLS-RA cells | able to inhibit PPI as shown by a decrease in red fluorescence compared to control | – | – | – | – | – | – | – | – | – | – | – |
| Cyclo(CKASAPPSCYDGDD) (bicyclic or more) [SFTI-a] | bind to CD58 on the cell surface | – | – | – | potent compound for inhibiting cell adhesion in the immune response | inhibits CD2–CD58 interaction | binds to the CD58 protein | significant reduction in a number of red dots | significant reduction in a number of red dots | significant in comparison with that of untreated wells | significant in comparison with that of untreated wells | significant decrease in red dots; also recorded: decrease in the number of red dots | significant in comparison with that of untreated wells | significant decrease in bright red spots; also recorded: dose-dependent inhibition of the interaction between CD2 and CD58 proteins | – |
| B1 | – | – | – | – | – | – | – | – | – | – | – | – | – | – | 1 to 10 |
